Each structure is given as a SMILES string. Some results are limits rather than exact numbers.

For the first test, the target named is T1, his-galectin-3 (Homo sapiens, UniProt P17931).
T1 construct: purchased Abcam
T1 sequence (P17931 whole entry): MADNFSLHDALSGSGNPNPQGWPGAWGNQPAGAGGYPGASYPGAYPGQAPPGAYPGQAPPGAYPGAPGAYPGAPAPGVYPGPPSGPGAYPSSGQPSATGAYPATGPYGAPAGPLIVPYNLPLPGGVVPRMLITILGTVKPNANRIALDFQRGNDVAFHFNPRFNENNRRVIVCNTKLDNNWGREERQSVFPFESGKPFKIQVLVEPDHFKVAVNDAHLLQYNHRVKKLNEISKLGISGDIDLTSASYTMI
Kind of test: TR-FRET assay (in vitro galectin-3 binding inhibitory activity test). As to conditions: Table 1; compound at 20 μM; 60 nM his-galectin-3, 15 nM biotin-ASF. In outline:
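Compound is premixed with his-galectin-3 (60 nM final), then biotin-ASF (15 nM), Tb anti-His antibody (2 nM) and streptavidin-d2 (20 nM) are added. After at least 3.5 hours at RT in HEPES/NaCl buffer with Tween 20 and BSA, TR-FRET is read at 615/665 nm. DMSO serves as the uninhibited control, ASF omission as background.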
On the technique in general: TR-FRET usually uses a lanthanide donor and a delayed reading to cut background.
Regarding `O=C1CCCC2(O[C@H](CO)[C@H](O)[C@H](n3cc(-c4cc(F)c(F)c(F)c4)nn3)[C@H]2O)N1CC(F)F` (stereo partly drawn) [Compound A94, (2R,3R,4S,5R)-7-(2,2-difluoroethyl)-3.5-dihydroxy-2-(hydroxymethyl)-4-(4-(3,4,5-trifluorophenyl)-1H-1,2,3-triazol-1-yl)-1-oxa-7-azaspiro[5.5]undecan-8-one], the “% Inhibitory activity (at 20 μM)” value is “D (inhibition rate was less than 25%)”.

The same test, now with this note: Table 1; compound at 20 μM; 60 nM his-galectin-3, 15 nM biotin-ASF; read-out: % Inhibitory activity (at 20 μM).
For `O=C(O)CO[C@@H]1[C@@H](n2cc(-c3cc(F)c(F)c(F)c3)nn2)[C@@H](O)[C@@H](CO)O[C@@]12CCCO2` [Compound A21, 2-(((5S,7R,8R,9S,10R)-8-hydroxy-7-(hydroxymethyl)-9-(4-(3,4,5-trifluorophenyl)-1H-1,2,3-triazol-1-yl)-1,6-dioxaspiro[4.5]decan-10-yl)oxy)acetic acid], the inhibition at 20 µM lay in the range of 50 to 75%.

Consider `O=c1oc2ccc(F)c(F)c2cc1CO[C@H]1[C@@H](O)[C@@H](CO)O[C@@]2(CCCO2)[C@@H]1O` [Compound A09, 3-((((5S,7R,8S,9S,10R)-8,10-dihydroxy-7-(hydroxymethyl)-1,6-dioxaspiro[4.5]decan-9-yl)oxy)methyl)-5,6-difluoro-2H-chromen-2-one], for which the inhibition at 20 µM is < 25%.

Turning to `O=C(N[C@@H]1CCO[C@]12O[C@H](CO)[C@H](O)[C@H](n1cc(-c3cc(F)c(F)c(F)c3)nn1)[C@H]2O)c1cccc2ccccc12` [Compound A133, N-((4R,5S,7R,8R,9S,10R)-8,10-dihydroxy-7-(hydroxymethyl)-9-(4-(3,4,5-trifluorophenyl)-1H-1,2,3-triazol-1-yl)-1,6-dioxaspiro[4.5]decan-4-yl)-1-naphthamide], the inhibition at 20 µM was > 75%.

With `O=C(CO[C@@H]1[C@@H](n2cc(-c3cc(F)c(F)c(F)c3)nn2)[C@@H](O)[C@@H](CO)O[C@@]12CCCO2)N1CC(O)C1` [Compound A34, 2-(((5S,7R,8R,9S,10R)-8-hydroxy-7-(hydroxymethyl)-9-(4-(3,4,5-trifluorophenyl)-1H-1,2,3-triazol-1-yl)-1,6-dioxaspiro[4.5]decan-10-yl)oxy)-1-(3-hydroxyazetidin-1-yl)ethanone], the inhibition at 20 µM was 25 to 50%.

As for `OC[C@H]1O[C@]2(OCC[C@H]2NCc2cccc(C(F)(F)F)c2)[C@H](O)[C@@H](n2cc(-c3cc(F)c(F)c(F)c3)nn2)[C@H]1O` [Compound A96, (4R,5S,7R,8R,9S,10R)-7-(hydroxymethyl)-4-((3-(trifluoromethyl)benzyl)amino)-9-(4-(3,4,5-trifluorophenyl)-1H-1,2,3-triazol-1-yl)-1,6-dioxaspiro[4.5]decane-8,10-diol], the inhibition at 20 µM is < 25%.

For the molecule `O=C1CCCC2(N1)O[C@H](CO)[C@H](O)[C@H](n1cc(-c3cc(F)c(F)c(F)c3)nn1)[C@H]2O` (single isomer, unassigned) [Compound A89], the inhibition at 20 µM is < 25%.

In the case of `O=C(O[C@@H]1[C@@H](n2cc(-c3cc(F)c(F)c(F)c3)nn2)[C@@H](O)[C@@H](CO)O[C@@]12CCCO2)c1cccc(F)c1` [Compound A39, (5S,7R,8R,9S,10R)-8-hydroxy-7-(hydroxymethyl)-9-(4-(3,4,5-trifluorophenyl)-1H-1,2,3-triazol-1-yl)-1,6-dioxaspiro[4.5]decan-10-yl 3-fluorobenzoate], the inhibition at 20 µM was in the range of 50 to 75%.

In the case of `O=C(Cc1cccc(F)c1)N[C@@H]1CCO[C@]12O[C@H](CO)[C@H](O)[C@H](n1cc(-c3cc(F)c(F)c(F)c3)nn1)[C@H]2O` [Compound A113, N-((4R,5S,7R,8R,9S,10R)-8,10-dihydroxy-7-(hydroxymethyl)-9-(4-(3,4,5-trifluorophenyl)-1H-1,2,3-triazol-1-yl)-1,6-dioxaspiro[4.5]decan-4-yl)-2-(3-fluorophenyl)acetamide], the inhibition at 20 µM is 50 to 75%.

Still in this test, the particulars now being: Table 2; compound at 20 μM; 60 nM his-galectin-3, 15 nM biotin-ASF.
`CC(C(=O)N[C@@H]1CCO[C@]12O[C@H](CO)[C@H](O)[C@H](n1cc(-c3cc(F)c(F)c(F)c3)nn1)[C@H]2O)c1cccc(Cl)c1` (single isomer, unassigned) [Compound A168]: the “% Inhibitory activity (at 20 μM)” value was “B (inhibition rate was 50%0 to 7500 (exclusive of 75%))”.

The test is the same for the next values; noted with them: Table 2; compound at 20 μM; 60 nM his-galectin-3, 15 nM biotin-ASF; read-out: % Inhibitory activity (at 20 μM).
For `O=C(N[C@@H]1CCO[C@]12O[C@H](CO)[C@H](O)[C@H](n1cc(-c3cc(F)c(F)c(F)c3)nn1)[C@H]2O)c1cccc2c1CCCC2` [Compound A158, N-((4R,5S,7R,8R,9S,10R)-8,10-dihydroxy-7-(hydroxymethyl)-9-(4-(3,4,5-trifluorophenyl)-1H-1,2,3-triazol-1-yl)-1,6-dioxaspiro[4.5]decan-4-yl)-5,6,7,8-tetrahydronaphthalene-1-carboxamide], the inhibition at 20 µM lay in the range of 50 to 75%.

Consider `O=C(N[C@@H]1CCO[C@]12O[C@H](CO)[C@H](O)[C@H](n1cc(-c3cc(F)c(F)c(F)c3)nn1)[C@H]2O)c1ccc2c(Br)cccc2c1` [Compound A192, 5-bromo-N-((4R,5S,7R,8R,9S,10R)-8,10-dihydroxy-7-(hydroxymethyl)-9-(4-(3,4,5-trifluorophenyl)-1H-1,2,3-triazol-1-yl)-1,6-dioxaspiro[4.5]decan-4-yl)-2-naphthamide], for which the inhibition at 20 µM is 25 to 50%.

As to `O=C(N[C@@H]1CCO[C@]12O[C@H](CO)[C@H](O)[C@H](n1cc(-c3cc(F)c(F)c(F)c3)nn1)[C@H]2O)c1ccnc2ccc(Br)cc12` [Compound A209, 6-bromo-N-((4R,5S,7R,8R,9S,10R)-8,10-dihydroxy-7-(hydroxymethyl)-9-(4-(3,4,5-trifluorophenyl)-1H-1,2,3-triazol-1-yl)-1,6-dioxaspiro[4.5]decan-4-yl)quinoline-4-carboxamide], the inhibition at 20 µM is > 75%.

As to `O=C(c1cc2ccccc2s1)N1CCC[C@]2(C1)O[C@H](CO)[C@H](O)[C@H](n1cc(-c3cc(F)c(F)c(F)c3)nn1)[C@H]2O` [Compound A187, benzo[b]thiophen-2-yl((2R,3R,4S,5R,6R)-3,5-dihydroxy-2-(hydroxymethyl)-4-(4-(3,4,5-trifluorophenyl)-1H-1,2,3-triazol-1-yl)-1-oxa-8-azaspiro[5.5]undecan-8-yl)methanone], the inhibition at 20 µM was < 25%.

Turning to `O=C(N[C@@H]1CCO[C@]12O[C@H](CO)[C@H](O)[C@H](n1cc(-c3cc(F)c(F)c(F)c3)nn1)[C@H]2O)c1cc(Br)cc2ccccc12` [Compound A178, 3-bromo-N-((4R,5S,7R,8R,9S,10R)-8,10-dihydroxy-7-(hydroxymethyl)-9-(4-(3,4,5-trifluorophenyl)-1H-1,2,3-triazol-1-yl)-1,6-dioxaspiro[4.5]decan-4-yl)-1-naphthamide], the inhibition at 20 µM was > 75%.

For `O=C(N[C@@H]1CCO[C@]12O[C@H](CO)[C@H](O)[C@H](n1cc(-c3cc(F)c(F)c(F)c3)nn1)[C@H]2O)c1noc2cc(Cl)ccc12` [Compound A199, 6-chloro-N-((4R,5S,7R,8R,9S,10R)-8,10-dihydroxy-7-(hydroxymethyl)-9-(4-(3,4,5-trifluorophenyl)-1H-1,2,3-triazol-1-yl)-1,6-dioxaspiro[4.5]decan-4-yl)benzo[d]isoxazole-3-carboxamide], the inhibition at 20 µM fell in the range of 25 to 50%.

Consider `O=C(N[C@@H]1CCO[C@]12O[C@H](CO)[C@H](O)[C@H](n1cc(-c3cc(F)c(F)c(F)c3)nn1)[C@H]2O)c1c[nH]c2cccc(Cl)c12` [Compound A232, 4-chloro-N-((4R,5S,7R,8R,9S,10R)-8,10-dihydroxy-7-(hydroxymethyl)-9-(4-(3,4,5-trifluorophenyl)-1H-1,2,3-triazol-1-yl)-1,6-dioxaspiro[4.5]decan-4-yl)-1H-indole-3-carboxamide], for which the inhibition at 20 µM was > 75%.

Take `O=C(N[C@@H]1CCO[C@]12O[C@H](CO)[C@H](O)[C@H](n1cc(-c3cc(F)c(F)c(F)c3)cn1)[C@H]2O)c1cccc2ccc(Cl)cc12` [Compound A238, 7-chloro-N-((4R,5S,7R,8R,9S,10R)-8,10-dihydroxy-7-(hydroxymethyl)-9-(4-(3,4,5-trifluorophenyl)-1H-pyrazol-1-yl)-1,6-dioxaspiro[4.5]decan-4-yl)-1-naphthamide]: the inhibition at 20 µM was > 75%.

Consider `O=C(N[C@@H]1CCO[C@]12O[C@H](CO)[C@H](O)[C@H](n1cc(-c3cc(F)c(F)c(F)c3)nn1)[C@H]2O)c1ccc2ccccc2c1Br` [Compound A193, 1-bromo-N-((4R,5S,7R,8R,9S,10R)-8,10-dihydroxy-7-(hydroxymethyl)-9-(4-(3,4,5-trifluorophenyl)-1H-1,2,3-triazol-1-yl)-1,6-dioxaspiro[4.5]decan-4-yl)-2-naphthamide], for which the inhibition at 20 µM is 50 to 75%.

For `OC[C@H]1O[C@@]2(CCCN(c3cccc(Cl)c3)C2)[C@H](O)[C@@H](n2cc(-c3cc(F)c(F)c(F)c3)nn2)[C@H]1O` [Compound A223, (2R,3R,4S,5R,6R)-8-(3-chlorophenyl)-2-(hydroxymethyl)-4-(4-(3,4,5-trifluorophenyl)-1H-1,2,3-triazol-1-yl)-1-oxa-8-azaspiro[5.5]undecane-3,5-diol], the inhibition at 20 µM is < 25%.

In the case of `O=C(N[C@@H]1CCO[C@]12O[C@H](CO)[C@H](O)[C@H](n1cc(-c3cc(F)c(F)c(F)c3)nn1)[C@H]2O)c1c[nH]c2cccc(F)c12` [Compound A255, N-((4R,5S,7R,8R,9S,10R)-8,10-dihydroxy-7-(hydroxymethyl)-9-(4-(3,4,5-trifluorophenyl)-1H-1,2,3-triazol-1-yl)-1,6-dioxaspiro[4.5]decan-4-yl)-4-fluoro-1H-indole-3-carboxamide], the inhibition at 20 µM was > 75%.
